{"source": "the supplement of paper PMC11208160"}
{"assay": "recombinant barcode read abundance after kanamycin selection (control-corrected) (log10(CPM+1)); higher = more efficient recombination; sequences stand for … in AGTGCAGAGAAAATCGGCCAGTTTTCTCTGCCTGCAGTCCGCATGCCGT…AGATTTATGCAGCGGACTGCCTTTCTCCCAAAGTGATAAACCGGACAGTATCATGGACCGGTTTTCCCGGTAATCCGTATTTGCAAGGTTGGTTTCACT; site = the 11-nt target", "outline": "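Oligos holding a promoter, target, barcode and the J23119-driven first 104 bases of the bridge RNA were Gibson-cloned into a vector that supplied the other 73 bp plus a T7-inducible recombinase. This library was co-electroporated with a donor plasmid into E. coli. Two replicates went on chloramphenicol/ampicillin LB agar (control) and two on chloramphenicol/ampicillin/kanamycin with 0.1 mM IPTG. Recombination efficiency is read from averaged, control-corrected barcode counts per million at recombinant junctions, reported as log10(CPM+1).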"}
{"sequence": "AGTATGACTTGGGTTCTAACCTGTTGCCT (site AGTATGACTAG)", "recombinant barcode read abundance (log10)": 0.923}
{"sequence": "GTCGTGTCTTGGGTTCTAACCTGTTGCCG (site GTCCTGTCTCG)", "recombinant barcode read abundance (log10)": 0.0845}
{"sequence": "GTCGTTGCTTGGGTTCTAACCTGTTGCCT (site CTCGTTGCTAG)", "recombinant barcode read abundance (log10)": 0.0407}
{"sequence": "GAGACTGCTTGGGTTCTAACCTGTTGCCT (site GATACTGCTAG)", "recombinant barcode read abundance (log10)": 0.0802}
{"sequence": "ACGACTACTTGGGTTCTAACCTGTTGCCG (site ACGACTACTCG)", "recombinant barcode read abundance (log10)": 0.618}
{"sequence": "GGTACGACTTGGGTTCTAACCTGTTGCAG (site GGTACGACTCT)", "recombinant barcode read abundance (log10)": 1.04}
{"sequence": "GATACAGCTTGGGTTCTAACCTGTTGCCT (site GATACAGCTAG)", "recombinant barcode read abundance (log10)": 1.16}
{"sequence": "GACTGGGCTTGGGTTCTAACCTGTTGCTG (site GACTGGGCTCA)", "recombinant barcode read abundance (log10)": 1.58}
{"sequence": "ACTGAGTCTTGGGTTCTAACCTGTTGCTT (site ACTGAGTCTAA)", "recombinant barcode read abundance (log10)": 1.22}
{"sequence": "AGTTCGTCTTGGGTTCTAACCTGTTGCCG (site AGTTCGTCTCG)", "recombinant barcode read abundance (log10)": 0.314}
{"sequence": "TCGGAGTCTTGGGTTCTAACCTGTTGCTT (site TCGGAGTCTAG)", "recombinant barcode read abundance (log10)": 1.17}
{"sequence": "TAGACTACTTGGGTTCTAACCTGTTGCTG (site TAGACTACTGA)", "recombinant barcode read abundance (log10)": 0.215}
{"sequence": "GATTGGACTTGGGTTCTAACCTGTTGCTT (site GATTGGACTAA)", "recombinant barcode read abundance (log10)": 0.661}
{"sequence": "CTTGCATCTTGGGTTCTAACCTGTTGCCT (site GGGCACACTGT)", "recombinant barcode read abundance (log10)": 0.293}
{"sequence": "ACGTCCACTTGGGTTCTAACCTGTTGCCT (site ACGTCCACTAG)", "recombinant barcode read abundance (log10)": 0.0313}
{"sequence": "GGTATAGCTTGGGTTCTAACCTGTTGCCT (site GGTAAAGCTAG)", "recombinant barcode read abundance (log10)": 0.14}
{"sequence": "GACCGTCCTTGGGTTCTAACCTGTTGCCT (site GACCGTCCTAG)", "recombinant barcode read abundance (log10)": 1}
{"sequence": "CAGGCCACTTGGGTTCTAACCTGTTGCCT (site CGGGCCACTAG)", "recombinant barcode read abundance (log10)": 1.04}
{"sequence": "GTCACTACTTGGGTTCTAACCTGTTGCAT (site GTCACTACTAT)", "recombinant barcode read abundance (log10)": 0.381}
{"sequence": "GACATTCCTTGGGTTCTAACCTGTTGCCT (site AACATTCCTAG)", "recombinant barcode read abundance (log10)": 0.375}
{"sequence": "GAAGACGCTTGGGTTCTAACCTGTTGCCT (site GAAGGCGCTAG)", "recombinant barcode read abundance (log10)": 0}
{"sequence": "TACCGAGCTTGGGTTCTAACCTGTTGCTG (site TACCGAGCTCA)", "recombinant barcode read abundance (log10)": 0.604}
{"sequence": "GGCAGTCCTTGGGTTCTAACCTGTTGCCG (site GGCAGTCCTCG)", "recombinant barcode read abundance (log10)": 0.364}
{"sequence": "GGCCGGTCTTGGGTTCTAACCTGTTGCCT (site GGCCGGCCTAG)", "recombinant barcode read abundance (log10)": 0.248}
{"sequence": "TGGCGTGCTTGGGTTCTAACCTGTTGCCT (site TGGCGTGCTAG)", "recombinant barcode read abundance (log10)": 0.382}
{"sequence": "CATCCATCTTGGGTTCTAACCTGTTGCAT (site CATCCATCTAT)", "recombinant barcode read abundance (log10)": 0.883}
{"sequence": "GATACGACTTGGGTTCTAACCTGTTGCCT (site GATACGTCTAG)", "recombinant barcode read abundance (log10)": 0.00976}
{"sequence": "AGCTGGGCTTGGGTTCTAACCTGTTGCCT (site AACTGGGCTAG)", "recombinant barcode read abundance (log10)": 0.0885}
{"sequence": "CTAGTAGCTTGGGTTCTAACCTGTTGCCG (site CTATTAGCTCG)", "recombinant barcode read abundance (log10)": 0.277}
{"sequence": "TCGGAGTCTTGGGTTCTAACCTGTTGCTT (site TCGGAGTCTAC)", "recombinant barcode read abundance (log10)": 0.501}
{"sequence": "TTAAAACCTTGGGTTCTAACCTGTTGCCT (site GTAAAACCTAG)", "recombinant barcode read abundance (log10)": 0.06}
{"sequence": "AGTTGTCCTTGGGTTCTAACCTGTTGCAT (site AGTTGTCCTAC)", "recombinant barcode read abundance (log10)": 0.0713}
{"sequence": "AACTTAACTTGGGTTCTAACCTGTTGCCT (site AACTAAACTAG)", "recombinant barcode read abundance (log10)": 0.236}
{"sequence": "CGCGGGTCTTGGGTTCTAACCTGTTGCTT (site CGCGAATCTAA)", "recombinant barcode read abundance (log10)": 0.236}
{"sequence": "TAATCGCCTTGGGTTCTAACCTGTTGCCT (site TAATCGCCTAG)", "recombinant barcode read abundance (log10)": 0.126}
{"sequence": "GAGGCAACTTGGGTTCTAACCTGTTGCTT (site CACGCAACTAA)", "recombinant barcode read abundance (log10)": 0}
{"sequence": "AAGATATCTTGGGTTCTAACCTGTTGCCT (site AGGATATCTAG)", "recombinant barcode read abundance (log10)": 0}
{"sequence": "CTAACTACTTGGGTTCTAACCTGTTGCTT (site CTAACTACTAA)", "recombinant barcode read abundance (log10)": 0.252}
{"sequence": "CCTTCTCCTTGGGTTCTAACCTGTTGCAT (site GTACGATCTCC)", "recombinant barcode read abundance (log10)": 0.146}
{"sequence": "CTACGGCCTTGGGTTCTAACCTGTTGCGT (site GGACGGCCTAC)", "recombinant barcode read abundance (log10)": 0.281}
{"sequence": "CTCGGAGCTTGGGTTCTAACCTGTTGCCT (site CTCGGATCTAG)", "recombinant barcode read abundance (log10)": 0.311}
{"sequence": "GACTGAGCTTGGGTTCTAACCTGTTGCGG (site GACTGAGCTCC)", "recombinant barcode read abundance (log10)": 2.26}
{"sequence": "AGGCTGGCTTGGGTTCTAACCTGTTGCCT (site AGGCTGGCTAG)", "recombinant barcode read abundance (log10)": 0.482}
{"sequence": "TATAGAGCTTGGGTTCTAACCTGTTGCGG (site TAGAGAGCTCC)", "recombinant barcode read abundance (log10)": 0.488}
{"sequence": "CACGACCCTTGGGTTCTAACCTGTTGCCT (site CAGGACCCTAG)", "recombinant barcode read abundance (log10)": 0.0694}
{"sequence": "TGTGCGACTTGGGTTCTAACCTGTTGCAC (site TGAGCTACTGT)", "recombinant barcode read abundance (log10)": 0.0835}
{"sequence": "TAGGATACTTGGGTTCTAACCTGTTGCAA (site TAGGATACTAT)", "recombinant barcode read abundance (log10)": 0.0732}
{"sequence": "TCGGCTCCTTGGGTTCTAACCTGTTGCCT (site TTGGCGCCTAG)", "recombinant barcode read abundance (log10)": 0.149}
{"sequence": "TTGGGAGCTTGGGTTCTAACCTGTTGCCT (site TTGGCAGCTAG)", "recombinant barcode read abundance (log10)": 0.11}
{"sequence": "AACAGTTCTTGGGTTCTAACCTGTTGCCT (site AACAGCTCTAG)", "recombinant barcode read abundance (log10)": 0.151}
{"sequence": "GTATGAACTTGGGTTCTAACCTGTTGCCT (site GTATGAGCTAG)", "recombinant barcode read abundance (log10)": 0.384}
{"sequence": "TCACGTCCTTGGGTTCTAACCTGTTGCAG (site TCACGTCCTCT)", "recombinant barcode read abundance (log10)": 0.829}
{"sequence": "GGTCCATCTTGGGTTCTAACCTGTTGCCT (site GCTCCATCTAG)", "recombinant barcode read abundance (log10)": 0.0427}
{"sequence": "TCGGGGTCTTGGGTTCTAACCTGTTGCCT (site TCGGGGTCTAG)", "recombinant barcode read abundance (log10)": 1.27}
{"sequence": "AGCAGAGCTTGGGTTCTAACCTGTTGCCG (site AGCAGAGCTCA)", "recombinant barcode read abundance (log10)": 0.0348}
{"sequence": "TGTGAGCCTTGGGTTCTAACCTGTTGCGA (site TGTGAGCCTTC)", "recombinant barcode read abundance (log10)": 0.748}
{"sequence": "GGACGACCTTGGGTTCTAACCTGTTGCCT (site GGACGTCCTAG)", "recombinant barcode read abundance (log10)": 0.163}
{"sequence": "ACGTAGACTTGGGTTCTAACCTGTTGCAG (site ACAGAGACTCT)", "recombinant barcode read abundance (log10)": 0.145}
{"sequence": "TTCTTGCCTTGGGTTCTAACCTGTTGCCT (site TTCTTGCCTAG)", "recombinant barcode read abundance (log10)": 0.665}
{"sequence": "GGCCGGCCTTGGGTTCTAACCTGTTGCCT (site GGCCGGGCTAG)", "recombinant barcode read abundance (log10)": 1.02}
{"sequence": "AGAAGTCCTTGGGTTCTAACCTGTTGCCG (site AGAAGTCCTCC)", "recombinant barcode read abundance (log10)": 0.121}
{"sequence": "GGCACTGCTTGGGTTCTAACCTGTTGCCT (site GGCACAGCTAG)", "recombinant barcode read abundance (log10)": 0.332}
{"sequence": "TAGACGACTTGGGTTCTAACCTGTTGCTT (site TAGCCGACTAA)", "recombinant barcode read abundance (log10)": 0.0758}
{"sequence": "GCGGCGACTTGGGTTCTAACCTGTTGCCT (site GCAGCGACTAG)", "recombinant barcode read abundance (log10)": 0.291}
{"sequence": "GTGAGGACTTGGGTTCTAACCTGTTGCCT (site TTGAGGACTAG)", "recombinant barcode read abundance (log10)": 0.316}
{"sequence": "TAGGCCACTTGGGTTCTAACCTGTTGCTT (site TAGGCCACTAA)", "recombinant barcode read abundance (log10)": 1.61}
{"sequence": "CTGGACACTTGGGTTCTAACCTGTTGCCT (site CTAGACACTAG)", "recombinant barcode read abundance (log10)": 1.94}
{"sequence": "TAAGATGCTTGGGTTCTAACCTGTTGCGG (site GCGACATCTAG)", "recombinant barcode read abundance (log10)": 0.0149}
{"sequence": "GGCGTAGCTTGGGTTCTAACCTGTTGCCT (site GACGTAGCTAG)", "recombinant barcode read abundance (log10)": 0.416}
{"sequence": "GGGCACTCTTGGGTTCTAACCTGTTGCAT (site GGGCACTCTAC)", "recombinant barcode read abundance (log10)": 0.132}
{"sequence": "TACAGTTCTTGGGTTCTAACCTGTTGCTT (site TACAGTTCTAA)", "recombinant barcode read abundance (log10)": 0.173}
{"sequence": "GCTAGTCCTTGGGTTCTAACCTGTTGCTG (site GCTAGTCCTCA)", "recombinant barcode read abundance (log10)": 0.83}
{"sequence": "GAAGTGCCTTGGGTTCTAACCTGTTGCCT (site GAAGCGCCTAG)", "recombinant barcode read abundance (log10)": 0.0713}
{"sequence": "ATGATTCCTTGGGTTCTAACCTGTTGCCT (site AGGATTCCTAG)", "recombinant barcode read abundance (log10)": 0.0244}
{"sequence": "CACACGGCTTGGGTTCTAACCTGTTGCCT (site CACACGGCTAG)", "recombinant barcode read abundance (log10)": 0.518}
{"sequence": "CGCCGTCCTTGGGTTCTAACCTGTTGCAT (site CGCCATCCTAT)", "recombinant barcode read abundance (log10)": 0.0426}
{"sequence": "ATATTATCTTGGGTTCTAACCTGTTGCCA (site ATATTATCTTG)", "recombinant barcode read abundance (log10)": 0.29}
{"sequence": "CTTTGTGCTTGGGTTCTAACCTGTTGCCT (site CTTAGGGCTAG)", "recombinant barcode read abundance (log10)": 0.32}
{"sequence": "TACGCGGCTTGGGTTCTAACCTGTTGCCT (site TACGCGGCTAG)", "recombinant barcode read abundance (log10)": 0.335}
{"sequence": "CCAGGAGCTTGGGTTCTAACCTGTTGCAG (site TCTGGAGCTCT)", "recombinant barcode read abundance (log10)": 0.141}
{"sequence": "GGGGCGACTTGGGTTCTAACCTGTTGCCT (site GGGGCGCCTAG)", "recombinant barcode read abundance (log10)": 0.0568}
{"sequence": "GTCCGAACTTGGGTTCTAACCTGTTGCCA (site GTCGGAGCTTG)", "recombinant barcode read abundance (log10)": 0.0199}
{"sequence": "CATGCTCCTTGGGTTCTAACCTGTTGCCT (site CATGCTCCTAT)", "recombinant barcode read abundance (log10)": 0.512}
{"sequence": "CTACGACCTTGGGTTCTAACCTGTTGCAG (site CTACGACCTCT)", "recombinant barcode read abundance (log10)": 2.56}
{"sequence": "AGCACAACTTGGGTTCTAACCTGTTGCCT (site AGCACAACTAG)", "recombinant barcode read abundance (log10)": 0.734}
{"sequence": "TATCCGACTTGGGTTCTAACCTGTTGCCG (site TATCCGACTCG)", "recombinant barcode read abundance (log10)": 0.396}
